{"source": "patent US4381301A", "about": "“Substituted tricyclic thieno compounds, their synthesis, their use, their compositions and their medicaments” (BYK Gulden Lomberg Chemische Fabrik GmbH, priority 1980, dated 1983)", "key": {"[1]": {"assay": "Antiulcerogenic (protective) action on the stomach, so-called Shay rat (pylorus ligature + acetylsalicylic acid), ulcer index", "format": "in vivo", "conditions": "rat, in vivo; LD50 i.v. mice / ED50 p.o. rats; read-out: TQ LD50/ED50 (therapeutic quotient)", "protocol": "(§1) ED50 = dose which reduces the ulcer index by 50% in the treated grou\n(§2) compared with the control group\n(§3) The antiulcerogenic action was tested in accordance with the method using the so-called Shay rat:\n(§4) Rats (female, 180 to 200 g, 4 animals per cage on a high grid) which had been fasted for 24 hours were subjected to ulcer provocation by pylorus ligature (under diethyl ether anaesthesia) and oral administration of 100 mg/10 ml/kg of acetylsalicylic acid. The substances to be tested are administered orally (10 ml/kg) 1 hour before the pylorus ligature. The wound is closed by means of Michel clamps. 4 hours thereafter, the animals are killed under ether anaesthesia by atlas dislocation, and the stomach is removed. The stomach is opened longitudinally and fixed to a cork tile after the amount of gastric juice secreted (volume) has been determined; the number and size (=diameter) of ulcers present are determined with a stereomicroscope with 10-fold magnification. The product of the degree of severity (according to the following rating scale) and the number of ulcers serves as the individual ulcer index. […]\n(§5) ______________________________________\n(§6) The reduction in the average ulcer index of each treated group compared with that of the control group (=100%) serves as a measure of the antiulcerogenic effect. The ED50 designates the dose which reduces the average ulcer index by 50%."}, "[2]": {"system": "stomach (Shay rat, gastric ulcers)", "assay": "Antiulcerogenic (protective) action on the stomach, so-called Shay rat (pylorus ligature + acetylsalicylic acid), ulcer index", "format": "in vivo", "conditions": "for ED50: Rattus norvegicus, po, peroral administration to rats, 1 hour before pylorus ligature, dose which reduces the ulcer index by 50% compared with control; for dose/action curve (antiulcerogenic action): compound 1 even at 300 mg/kg", "protocol": "as §1, §2, §3, §4, §5, §6"}, "Gastric secretion": {"system": "Gastric secretion", "assay": "Inhibition of gastric secretion in the Shay rat", "format": "in vivo", "conditions": "in rats, 4 hours after administration of the antiulcerogenic ED50", "protocol": "^(+) % inhibition = inhibition of the gastric secretion (in %) 4 hour\nafter administration of the antiulcerogenic ED50\nRats (female, 180 to 200 g, 4 animals per cage on a high grid) which had been fasted for 24 hours were subjected to ulcer provocation by pylorus ligature (under diethyl ether anaesthesia) and oral administration of 100 mg/10 ml/kg of acetylsalicylic acid. The substances to be tested are administered orally (10 ml/kg) 1 hour before the pylorus ligature. The wound is closed by means of Michel clamps. 4 hours thereafter, the animals are killed under ether anaesthesia by atlas dislocation, and the stomach is removed. The stomach is opened longitudinally and fixed to a cork tile after the amount of gastric juice secreted (volume) has been determined; the number and size (=diameter) of ulcers present are determined with a stereomicroscope with 10-fold magnification. The product of the degree of severity (according to the following rating scale) and the number of ulcers serves as the individual ulcer index."}, "[3]": {"assay": "Determination of acute toxicity (LD50) in mice", "conditions": "mouse, in vivo; intravenous administration to mice; 7 days observation", "protocol": "LD50 = dose at which 50% of the animals\nThe toxicity investigations are carried out on female NMRI mice (body weight: 22 to 26 g). The animals (5 animals per dose) receive feed and water ad libitum. Various doses of the substances are administered intravenously (injection time: 1 minute). The observation period is 7 days. The LD50 (the dose at which 50% of the animals die) is determined by means of linear regression."}}}
{"smiles": "CC1(C)[C@@H](OC(=O)CCC(=O)O)CC[C@]2(C)[C@H]3C(=O)C=C4[C@@H]5C[C@@](C)(C(=O)O)CC[C@]5(C)CC[C@@]4(C)[C@]3(C)CC[C@@H]12", "note": "[compound 1, carbenoxolone, reference compound]", "values": [{"measurement": "selectivity ratio", "setting": "[1]", "result": 4.1}, {"measurement": "ED50", "setting": "[2]", "result": "~70", "unit": "mg/kg"}, {"measurement": "dose/action curve (antiulcerogenic action)", "setting": "[2]; oral, rats", "result": "very severely flattened so that no substantial increase in the ulcerogenic action can be achieved even at 300 mg/kg"}, {"measurement": "Gastric secretion % inhibition", "setting": "Gastric secretion", "result": 7, "unit": "%"}]}
{"smiles": "CN1CCN(CC(=O)N2c3ccccc3NC(=O)c3cscc32)CC1", "note": "[compound 2, 9,10-dihydro-4-[(4-methylpiperazin-1-yl)acetyl]-4H-thieno[3,4-b][1,5]benzodiazepin-10-one]", "values": [{"measurement": "selectivity ratio", "setting": "[1]", "result": 76}, {"measurement": "inhibition effects (antiulcerogenic action)", "setting": "[2]; 10 mg/kg, oral, rats", "result": "up to 95%"}, {"measurement": "ED50", "setting": "[2]", "result": 2.5, "unit": "mg/kg"}, {"measurement": "dose/action curve (antiulcerogenic action)", "setting": "[2]; oral, rats", "result": "strictly dependent on the dose"}, {"measurement": "Gastric secretion % inhibition", "setting": "Gastric secretion", "result": 35, "unit": "%"}, {"measurement": "LD50 at 168 h", "setting": "[3]", "result": 190, "unit": "mg/kg"}]}
